The values below come from ChEMBL document CHEMBL5321287, “Discovery, Synthesis, and Evaluation of Novel Dual Inhibitors of a Vascular Endothelial Growth Factor Receptor and Poly(ADP-Ribose) Polymerase for BRCA Wild-Type Breast Cancer Therapy” (J Med Chem, 2023).

Data set [1] in a line: Toxicity in BALB/c nude mouse xenografted with human MDA-MB-231 cells assessed as damage in kidney at 25 to 50 mg/kg, po for 14 days. It is filed as organism-based. Particulars: in vivo, 336 h, dose 25-50 mg/kg, time 14 day.
Data set [2] in a line: AUC (0 to infinity) in Sprague-Dawley rat at 1 mg/kg, iv by LC-MS analysis. Set-up: dose 1 mg/kg, route iv. It is filed as ADME, organism-based. Particulars: in vivo.
Data set [3] concerns the target Serine/threonine-protein kinase 16 (Homo sapiens, UniProt O75716). The data set can be described thus: Inhibition of MPSK1 (unknown origin) by Z'-Lyte kinase assay.
Data set [4] concerns the target Vascular endothelial growth factor receptor 1 (Homo sapiens, UniProt P17948). The experiment in a line: Inhibition of VEGFR1 (unknown origin) by Z'-Lyte kinase assay.
Data set [5] addresses Macrophage colony-stimulating factor 1 receptor (Homo sapiens, UniProt P07333). The data set can be described thus: Inhibition of FMS (unknown origin) by Z'-Lyte kinase assay.
Data set [6] in a line: Clearance in Sprague-Dawley rat at 1 mg/kg, iv by LC-MS analysis. It counts as ADME, organism-based. Particulars: in vivo.
Data set [7] is described as follows: Oral bioavailability in Sprague-Dawley rat at 10 mg/kg administered via gavage by LC-MS analysis. It counts as ADME, organism-based. The conditions noted are these: in vivo.
The nature of data set [8]: Toxicity in BALB/c nude mouse xenografted with human MDA-MB-231 cells assessed as damage in heart at 25 to 50 mg/kg, po for 14 days. The conditions noted are these: in vivo, 336 h, dose 25-50 mg/kg, time 14 day. It counts as organism-based.
In data set [9] the target is Vascular endothelial growth factor receptor 3 (Homo sapiens, UniProt P35916). The experiment in a line: Inhibition of VEGFR3 (unknown origin) by Z'-Lyte kinase assay.
The target of data set [10] is T1, Serine/threonine-protein kinase TAO2 (Homo sapiens, UniProt Q9UL54).
T1 sequence (Q9UL54 whole entry): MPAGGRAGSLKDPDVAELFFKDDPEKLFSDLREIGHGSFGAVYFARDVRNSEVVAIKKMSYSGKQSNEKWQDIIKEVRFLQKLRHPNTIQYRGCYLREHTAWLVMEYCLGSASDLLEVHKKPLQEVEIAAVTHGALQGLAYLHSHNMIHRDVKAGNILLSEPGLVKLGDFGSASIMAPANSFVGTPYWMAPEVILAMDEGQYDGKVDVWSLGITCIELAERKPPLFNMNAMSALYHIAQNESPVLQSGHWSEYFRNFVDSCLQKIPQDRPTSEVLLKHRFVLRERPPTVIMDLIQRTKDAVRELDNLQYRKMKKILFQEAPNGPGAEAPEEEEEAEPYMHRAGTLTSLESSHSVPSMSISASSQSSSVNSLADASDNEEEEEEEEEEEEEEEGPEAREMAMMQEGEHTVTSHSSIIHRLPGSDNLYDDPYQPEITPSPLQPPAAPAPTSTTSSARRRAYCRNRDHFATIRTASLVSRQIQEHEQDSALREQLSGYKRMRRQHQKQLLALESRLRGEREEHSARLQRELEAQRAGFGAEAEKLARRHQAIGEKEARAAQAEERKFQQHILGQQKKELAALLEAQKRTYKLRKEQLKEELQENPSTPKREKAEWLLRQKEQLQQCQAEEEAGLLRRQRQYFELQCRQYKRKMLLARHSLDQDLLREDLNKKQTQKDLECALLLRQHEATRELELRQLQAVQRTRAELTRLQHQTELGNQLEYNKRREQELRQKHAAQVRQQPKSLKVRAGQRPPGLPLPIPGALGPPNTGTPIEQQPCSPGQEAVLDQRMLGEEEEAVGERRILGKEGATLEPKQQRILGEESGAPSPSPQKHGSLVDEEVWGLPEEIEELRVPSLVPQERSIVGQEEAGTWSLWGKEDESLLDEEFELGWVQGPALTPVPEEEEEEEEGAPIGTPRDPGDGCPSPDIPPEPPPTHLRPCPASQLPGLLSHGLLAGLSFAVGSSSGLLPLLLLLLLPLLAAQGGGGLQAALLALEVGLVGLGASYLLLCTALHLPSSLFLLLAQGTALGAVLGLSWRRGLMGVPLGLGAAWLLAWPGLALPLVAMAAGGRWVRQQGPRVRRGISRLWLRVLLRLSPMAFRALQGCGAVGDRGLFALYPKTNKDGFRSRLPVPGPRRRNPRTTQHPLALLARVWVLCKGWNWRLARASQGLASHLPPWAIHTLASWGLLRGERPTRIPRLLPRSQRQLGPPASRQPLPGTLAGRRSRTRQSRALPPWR
The data set can be described thus: Inhibition of TAO2 (unknown origin) by Z'-Lyte kinase assay.

The nature of data set [11]: Half life in Sprague-Dawley rat at 1 mg/kg, iv by LC-MS analysis. It is filed as ADME, organism-based. The conditions noted are these: in vivo.
The target of data set [12] is Poly [ADP-ribose] polymerase 2 (Homo sapiens, UniProt Q9UGN5). The experiment in a line: Inhibition of PARP2 (unknown origin).
Data set [13] in a line: Toxicity in BALB/c nude mouse xenografted with human MDA-MB-231 cells assessed as damage in lungs at 25 to 50 mg/kg, po for 14 days. It is filed as organism-based. Particulars: in vivo, 336 h, dose 25-50 mg/kg, time 14 day.
Data set [14] is described as follows: Toxicity in BALB/c nude mouse xenografted with human MDA-MB-231 cells assessed as damage in liver at 25 to 50 mg/kg, po for 14 days. Particulars: in vivo, 336 h, dose 25-50 mg/kg, time 14 day. It counts as organism-based.
The nature of data set [15]: Half life in Sprague-Dawley rat at 10 mg/kg, po via gavage by LC-MS analysis. It counts as ADME, organism-based. The conditions noted are these: in vivo.
The target in data set [16] is Mitogen-activated protein kinase kinase kinase 11 (Homo sapiens, UniProt Q16584). The data set can be described thus: Inhibition of MLK3 (unknown origin) by Z'-Lyte kinase assay.
Data set [17] in a line: Toxicity in BALB/c nude mouse xenografted with human MDA-MB-231 cells assessed as change in body weight at 25 to 50 mg/kg, po for 14 days. It is filed as organism-based. Particulars: in vivo, 336 h, dose 25-50 mg/kg, time 14 day.
A short description of data set [18]: Toxicity in BALB/c nude mouse xenografted with human MDA-MB-231 cells assessed as damage in spleen at 25 to 50 mg/kg, po for 14 days. It counts as organism-based. The conditions noted are these: in vivo, 336 h, dose 25-50 mg/kg, time 14 day.
Data set [19] in a line: Cmax in Sprague-Dawley rat at 1 mg/kg, iv by LC-MS analysis. It is filed as ADME, organism-based. Set-up: dose 1 mg/kg, route iv. The conditions noted are these: in vivo.
A short description of data set [20]: AUC (0 to t) in Sprague-Dawley rat at 10 mg/kg, po via gavage by LC-MS analysis. The arrangement: dose 10 mg/kg, route po. It is filed as ADME, organism-based. The conditions noted are these: in vivo.
Data set [21] can be described thus: Apparent volume of distribution in Sprague-Dawley rat at 1 mg/kg, iv by LC-MS analysis. It is filed as ADME, organism-based. The conditions noted are these: in vivo, read-out: Vz.
Data set [22] can be described thus: Cmax in Sprague-Dawley rat at 10 mg/kg, po via gavage by LC-MS analysis. It counts as ADME, organism-based. The arrangement: dose 10 mg/kg, route po. The conditions noted are these: in vivo.
Data set [23] is described as follows: AUC (0 to infinity) in Sprague-Dawley rat at 10 mg/kg, po via gavage by LC-MS analysis. It counts as ADME, organism-based. The arrangement: dose 10 mg/kg, route po. The conditions noted are these: in vivo.
The nature of data set [24]: AUC (0 to t) in Sprague-Dawley rat at 1 mg/kg, iv by LC-MS analysis. It counts as ADME, organism-based. Set-up: dose 1 mg/kg, route iv. Particulars: in vivo.

Macrophage colony-stimulating factor 1 receptor, sequence (P07333 whole entry): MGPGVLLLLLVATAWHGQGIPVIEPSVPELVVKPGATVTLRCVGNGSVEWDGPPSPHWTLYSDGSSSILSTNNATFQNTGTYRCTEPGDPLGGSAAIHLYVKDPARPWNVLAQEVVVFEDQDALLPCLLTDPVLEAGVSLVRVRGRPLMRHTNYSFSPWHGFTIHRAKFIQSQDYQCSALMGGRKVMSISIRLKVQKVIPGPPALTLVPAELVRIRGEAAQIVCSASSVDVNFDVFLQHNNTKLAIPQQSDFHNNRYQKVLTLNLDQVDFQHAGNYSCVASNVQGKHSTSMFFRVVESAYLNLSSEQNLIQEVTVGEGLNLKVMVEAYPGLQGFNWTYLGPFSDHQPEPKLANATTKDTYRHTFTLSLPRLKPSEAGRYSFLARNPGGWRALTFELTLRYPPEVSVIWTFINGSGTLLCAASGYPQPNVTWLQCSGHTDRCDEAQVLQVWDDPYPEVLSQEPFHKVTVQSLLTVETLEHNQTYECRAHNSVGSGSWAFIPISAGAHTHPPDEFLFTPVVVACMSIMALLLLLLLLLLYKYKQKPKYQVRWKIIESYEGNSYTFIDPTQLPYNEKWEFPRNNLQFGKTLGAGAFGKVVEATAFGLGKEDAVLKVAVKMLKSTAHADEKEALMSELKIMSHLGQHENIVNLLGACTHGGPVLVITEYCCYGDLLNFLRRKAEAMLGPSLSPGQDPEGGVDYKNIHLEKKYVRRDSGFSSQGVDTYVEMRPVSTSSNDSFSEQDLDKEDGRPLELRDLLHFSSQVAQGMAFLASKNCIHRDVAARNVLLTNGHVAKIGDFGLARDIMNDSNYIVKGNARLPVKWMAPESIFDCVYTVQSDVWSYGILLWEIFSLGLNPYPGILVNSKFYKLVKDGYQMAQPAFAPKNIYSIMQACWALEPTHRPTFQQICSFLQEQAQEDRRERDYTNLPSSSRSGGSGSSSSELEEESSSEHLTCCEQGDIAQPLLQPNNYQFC
Poly [ADP-ribose] polymerase 2, sequence (Q9UGN5 whole entry): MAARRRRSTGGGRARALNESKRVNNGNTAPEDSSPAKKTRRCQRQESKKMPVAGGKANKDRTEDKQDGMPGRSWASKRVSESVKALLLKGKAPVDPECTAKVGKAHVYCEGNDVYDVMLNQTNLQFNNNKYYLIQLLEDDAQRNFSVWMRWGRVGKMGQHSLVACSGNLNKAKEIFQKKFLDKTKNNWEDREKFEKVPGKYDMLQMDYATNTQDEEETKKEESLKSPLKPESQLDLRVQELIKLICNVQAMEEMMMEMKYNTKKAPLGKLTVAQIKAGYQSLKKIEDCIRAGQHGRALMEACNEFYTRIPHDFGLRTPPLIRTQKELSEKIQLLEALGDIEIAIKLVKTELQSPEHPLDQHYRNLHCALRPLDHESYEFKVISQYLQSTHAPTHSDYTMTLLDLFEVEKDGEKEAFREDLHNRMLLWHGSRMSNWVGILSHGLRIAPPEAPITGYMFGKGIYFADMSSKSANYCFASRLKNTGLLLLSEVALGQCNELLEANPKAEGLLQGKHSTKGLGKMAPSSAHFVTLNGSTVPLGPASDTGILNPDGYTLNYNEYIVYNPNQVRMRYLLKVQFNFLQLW
Mitogen-activated protein kinase kinase kinase 11, sequence (Q16584 whole entry): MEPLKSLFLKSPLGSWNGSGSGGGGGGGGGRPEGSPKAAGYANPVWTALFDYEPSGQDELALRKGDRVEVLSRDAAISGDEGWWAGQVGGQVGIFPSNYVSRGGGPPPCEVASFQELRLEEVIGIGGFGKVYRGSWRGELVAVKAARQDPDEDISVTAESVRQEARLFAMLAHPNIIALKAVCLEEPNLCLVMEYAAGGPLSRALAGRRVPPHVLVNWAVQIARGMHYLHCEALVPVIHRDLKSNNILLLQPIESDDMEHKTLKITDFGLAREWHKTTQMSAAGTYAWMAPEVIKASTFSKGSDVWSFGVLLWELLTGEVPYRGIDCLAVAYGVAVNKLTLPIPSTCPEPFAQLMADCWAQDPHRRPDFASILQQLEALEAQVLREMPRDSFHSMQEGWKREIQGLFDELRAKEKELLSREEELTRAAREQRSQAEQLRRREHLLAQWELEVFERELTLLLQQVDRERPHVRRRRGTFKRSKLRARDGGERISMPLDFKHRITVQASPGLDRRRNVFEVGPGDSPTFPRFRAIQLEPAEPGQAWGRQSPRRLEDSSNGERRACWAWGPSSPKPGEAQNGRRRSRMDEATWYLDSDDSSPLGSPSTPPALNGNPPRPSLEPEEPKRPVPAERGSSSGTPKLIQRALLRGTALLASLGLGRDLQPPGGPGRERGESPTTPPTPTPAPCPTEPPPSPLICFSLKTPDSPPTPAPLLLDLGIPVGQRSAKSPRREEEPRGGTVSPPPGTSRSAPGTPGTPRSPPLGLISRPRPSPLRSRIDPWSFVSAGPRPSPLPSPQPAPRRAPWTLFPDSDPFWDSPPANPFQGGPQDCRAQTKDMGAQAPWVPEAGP
Serine/threonine-protein kinase 16, sequence (O75716 whole entry): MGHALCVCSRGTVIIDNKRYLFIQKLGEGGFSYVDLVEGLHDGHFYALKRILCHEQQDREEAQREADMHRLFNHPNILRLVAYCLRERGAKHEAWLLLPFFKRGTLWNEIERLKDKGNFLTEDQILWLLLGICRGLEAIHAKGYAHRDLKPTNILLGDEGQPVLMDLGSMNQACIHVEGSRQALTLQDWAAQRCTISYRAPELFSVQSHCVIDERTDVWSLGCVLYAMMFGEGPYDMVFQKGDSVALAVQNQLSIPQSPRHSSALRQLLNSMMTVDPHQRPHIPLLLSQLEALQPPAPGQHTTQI
Vascular endothelial growth factor receptor 1, sequence (P17948 whole entry): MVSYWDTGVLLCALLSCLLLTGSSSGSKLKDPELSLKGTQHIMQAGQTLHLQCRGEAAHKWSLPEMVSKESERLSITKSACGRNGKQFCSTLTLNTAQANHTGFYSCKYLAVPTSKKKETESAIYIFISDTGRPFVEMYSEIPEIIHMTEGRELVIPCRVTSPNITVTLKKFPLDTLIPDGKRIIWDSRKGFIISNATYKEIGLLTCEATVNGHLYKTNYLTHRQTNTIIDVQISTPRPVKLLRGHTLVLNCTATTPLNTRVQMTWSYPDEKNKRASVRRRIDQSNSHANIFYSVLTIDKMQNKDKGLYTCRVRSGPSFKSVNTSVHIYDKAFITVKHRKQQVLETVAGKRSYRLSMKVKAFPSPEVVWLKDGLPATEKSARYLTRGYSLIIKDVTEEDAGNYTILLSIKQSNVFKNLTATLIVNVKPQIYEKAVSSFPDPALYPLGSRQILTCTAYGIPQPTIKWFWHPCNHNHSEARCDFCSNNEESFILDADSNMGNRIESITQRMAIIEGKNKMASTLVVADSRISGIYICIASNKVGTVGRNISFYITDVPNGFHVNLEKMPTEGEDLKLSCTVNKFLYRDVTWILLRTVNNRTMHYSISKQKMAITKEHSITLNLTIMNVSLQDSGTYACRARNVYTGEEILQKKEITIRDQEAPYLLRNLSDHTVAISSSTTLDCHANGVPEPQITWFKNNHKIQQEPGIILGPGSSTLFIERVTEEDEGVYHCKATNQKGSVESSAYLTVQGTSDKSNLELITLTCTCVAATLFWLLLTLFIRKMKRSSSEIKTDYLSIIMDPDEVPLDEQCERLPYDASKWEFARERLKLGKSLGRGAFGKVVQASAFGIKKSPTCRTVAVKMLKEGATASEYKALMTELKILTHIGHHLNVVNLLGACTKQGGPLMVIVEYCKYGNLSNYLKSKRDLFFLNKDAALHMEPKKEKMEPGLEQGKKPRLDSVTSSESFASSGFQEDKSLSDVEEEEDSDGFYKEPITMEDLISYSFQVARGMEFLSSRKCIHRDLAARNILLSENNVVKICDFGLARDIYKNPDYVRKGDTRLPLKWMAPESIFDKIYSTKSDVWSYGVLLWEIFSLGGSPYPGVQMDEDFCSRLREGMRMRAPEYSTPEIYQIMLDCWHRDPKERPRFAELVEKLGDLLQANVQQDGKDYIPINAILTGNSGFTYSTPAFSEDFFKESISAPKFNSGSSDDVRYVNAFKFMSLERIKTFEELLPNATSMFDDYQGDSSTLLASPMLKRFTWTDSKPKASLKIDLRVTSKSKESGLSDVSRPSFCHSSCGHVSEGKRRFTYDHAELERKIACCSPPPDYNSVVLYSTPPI

With `Cc1ccc(Nc2nccc(N(C)c3ccc4c(C)n(C)nc4c3)n2)cc1-c1nc2c(C(N)=O)cccc2[nH]1`, the Activity result in data set [1], in data set [8], in data set [13], in data set [14], in data set [17] and in data set [18] was “Non-Toxic” each time. Moreover, the figures for the AUC(0-inf) in data set [2] and in data set [23] were 821 ng·h/mL and 4920 ng·h/mL, respectively. Also, the IC50 was found to be 148 nM in [3]; 166 nM in data set [4]; 299 nM in data set [5]; 499 nM in data set [9]; 689 nM in data set [10]; 78.4 nM in data set [12]. The compound also gave an IC50 in [16] of 347 nM. Further, in data set [6], the clearance was determined as 20.9 mL/min/kg. The bioavailability in data set [7] amounted to 60.1%. Also, the half-life in data set [11] was 1.2 h; in [15], 1 h. Moreover, the Cmax in data set [19] is 482 ng/mL; in data set [22] it was 2430 ng/mL. Besides, the AUC(0-t) in data set [20] was found to be 4900 ng·h/mL; in data set [24] it was 815 ng·h/mL. The Vd in data set [21] came out at 2.2 L/kg.
